Read-outs that look alike come from different tables or passages of the source.
Target: PxutCSP19 (Papilio xuthus, UniProt A0A194QJK0)
Experiment: Fluorescence competitive binding assay (1-NPN displacement), wildtype PxutCSP19
Details: for F.D. (fluorescent displacement rate of ligands) / inhibition at 20 µM: ligand at 20 μM, PxutCSP19/1-NPN each 2 μM, NB = no binding; for inhibition at 20 µM: read-out: F.D. (fluorescent displacement rate of ligands), Wildtype (WT); for 1-NPN fluorescence displaced / binding with PxutCSP19 (in words): wildtype; for 1-NPN fluorescence displaced: ligand at 36 μM
Excerpt: The open reading frame (ORF) of PxutCSP19 was cloned with a PrimeSTAR®® Max DNA Polymerase (TaKaRa, Liaoning, Dalian, China) and gene-specific primers containing restriction enzyme sites (BamH I and Xho I) (Table S2). The PCR products were detected on a 1.5% (w/v) agarose gel, and the expected bands were cut and purified using a HiPure Gel Pure DNA Mini Kit (Magen, Guangzhou, China). Next, BamH I and Xho I were used to digest the PxutCSP19 products and pET-30a (+) plasmids, followed by purification. A T4 DNA ligase (Thermo Fisher Scientific, Waltham, MA, USA) was applied to the construction of the recombinant plasmids pET-30a (+)/PxutCSP19. After being confirmed by sequencing, the plasmids were transformed into BL21 (DE3) competent cells so as to express recombinant proteins with 1.0 mM isopropyl β-D-thiogalactoside (IPTG). Because this recombinant protein pET-30a (+)/PxutCSP19 was insoluble, we applied a protein denaturation–renaturation approach to purify PxutCSP19 with an affinity chromatography technique, in which the denaturation buffer included 8 M urea and 1.0 mM β-mercaptoethanol.
In order to investigate the ligand-binding properties of PxutCSP19 to host odorants and insecticides, we first asked whether this fluorescent probe 1-NPN was available for the binding of PxutCSP19. To calculate the binding ability of PxutCSP19 to 1-NPN, we titrated different final concentrations of 1-NPN (2~20 μM) into Tris-HCl buffer (pH 7.4) containing 2 μM PxutCSP19. The binding constant (K1-NPN) of 1-NPN to this protein was determined with GraphPad Prism 7 (GraphPad Software Inc., San Diego, CA), as previously described. The solution was excited at 337 nm and the emission peak was monitored at 414 nm on an RF-5301PC spectrofluorometer (Shimadzu, Kyoto, Japan) using a quartz micro-cuvette filled with a 100 μL mixture, with 5 nm excitation and emission slit widths. If the host odorant molecules could displace more than 40% of the 1-NPN fluorescence from the binding cavity of PxutCSP19, the compounds would be continuously added up to 36 μM with triplicates. For the binding experiments, each compound would be added into the PxutCSP19/1-NPN (each 2 μM) complex with final concentrations of 2~20 μM. […] We used the Ki values to compare the binding affinities of various ligands with the equation: Ki = [IC50]/(1 + [1-NPN]/K1-NPN), where IC50 represents the ligand concentrations displacing one half of the initial protein/1-NPN fluorescence, and [1-NPN] is the free concentration of 1-NPN at 2 μM.

[1] = Wildtype (WT), ligand up to 20 μM or 36 μM, displacing half of protein/1-NPN fluorescence, read-out: IC50

Chain of PxutCSP19 (A0A194QJK0 entry or part of it): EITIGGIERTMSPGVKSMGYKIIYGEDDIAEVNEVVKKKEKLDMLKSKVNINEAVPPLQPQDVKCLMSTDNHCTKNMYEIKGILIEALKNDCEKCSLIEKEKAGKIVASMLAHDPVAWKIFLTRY

IC50 [µM]	inhibition at 20 µM [%]	Compound	further results
		Cc1ccc(C(C)C)cc1 [p-Isopropyl toluene]	F.D. (fluorescent displacement rate of ligands) (Wildtype (WT)): 32.32%; IC50 [1]: > 20 µM
		COC(=O)c1ccccc1C [Methyl o-toluate]	F.D. (fluorescent displacement rate of ligands) (Wildtype (WT)): 37.28%; IC50 [1]: > 20 µM
> 20	33.5	C=C1CCC2(C(C)C)CC12 (centres unmarked) [Sabinene]	
> 20	27	CC(C)=CCC/C(C)=C/CC/C(C)=C/CO [Farnesol]	
> 20	33.3	CC(=O)OC/C=C(\C)CCC=C(C)C [Geranyl acetate]	
> 20	38.4	CC1=CC[C@@H]2C[C@H]1C2(C)C [(1R)-(+)-α-Pinene]	
> 20	29.3	CCCCCCCCC=O [Nonanal]	
> 20	28.7	CCCC(=O)OCC [Ethyl butyrate]	
> 20	34.1	CC1=CC[C@H](C(C)C)C=C1 [α-Phellandrene]	
> 36	> 40	CC1=CC[C@@H](C(C)(C)O)CC1 [α-Terpineol]	1-NPN fluorescence displaced: less than 50%
> 20	34.5	C=C1C2CCC(C2)C1(C)C (centres unmarked) [Camphene]	
		CC(C)=CCC[C@@H](C)CC=O [Citronellal]	F.D. (fluorescent displacement rate of ligands) (Wildtype (WT)): 34.20%; IC50 [1]: > 20 µM
		O=C(NC(=O)c1ccccc1Cl)Nc1ccc(Cl)cc1 [Chlorbenzuron, reference compound]	F.D. (fluorescent displacement rate of ligands) (Wildtype (WT)): 42.75%; IC50 [1]: > 20 µM
> 20	27.7	CCCCCCCCCCC=O [Undecanal]	
		Farnesene	F.D. (fluorescent displacement rate of ligands) (Wildtype (WT)): 23.21%; IC50 [1]: > 20 µM
		C=C1CC/C=C(\C)CC[C@@H]2[C@@H]1CC2(C)C [β-Caryophyllene]	binding with PxutCSP19 (in words): no binding
> 20	35.8	CC/C=C\CCO [(Z)-3-Hexen-1-ol]	
> 20	34.6	CC1=CCC2CC1C2(C)C (stereo not drawn) [α-Pinene]	
> 20	39.7	OCCc1ccccc1 [Phenethyl alcohol]	
> 20	28.7	CCCCCCCCCC=O [Decanal]	
> 20	37.4	Cc1ccc(C(C)C)cc1O [Carvacrol]	
		C=C[C@]1(C)CC[C@@H](C(=C)C)C[C@H]1C(=C)C [β-Elemene]	binding with PxutCSP19 (in words): no binding

Compound	IC50 [µM]	inhibition at 20 µM [%]	further results
CCC/C=C/C=O [(E)-2-Hexenal]	> 20	33.8	
CC1=CC=C(C(C)C)CC1 [α-Terpinene]	> 36	> 40	1-NPN fluorescence displaced: less than 50%
CC1(C)[C@H](C(=O)O[C@H](C#N)c2cccc(Oc3ccccc3)c2)[C@@H]1C=C(Br)Br [Deltamethrin, reference compound]	> 20	39.3	
N#Cc1nn(-c2c(Cl)cc(C(F)(F)F)cc2Cl)c(N)c1[S+]([O-])C(F)(F)F (centres unmarked) [Fipronil, reference compound]	> 20	37.5	
C/C=C(\C)C(=O)O[C@H]1C[C@@H](OC(C)=O)[C@@]2(C(=O)OC)CO[C@H]3[C@@H](O)[C@@](C)([C@]45O[C@@]4(C)[C@H]4C[C@@H]5O[C@@H]5OC=C[C@@]54O)[C@H]4[C@]1(CO[C@]4(O)C(=O)OC)[C@@H]32 [Azadirachtin, reference compound]	> 20	34.5	
C/C(=N\C#N)N(C)Cc1ccc(Cl)nc1 [Acetamiprid, reference compound]	> 20	42.9	
CCc1ccc(C(=O)NN(C(=O)c2cc(C)cc(C)c2)C(C)(C)C)cc1 [Tebufenozide, reference compound]	> 20	48.5	
O=C1CCC[C@@H]2[C@H]3CCCN4CCC[C@@H](CN12)[C@@H]34 [Matrine, reference compound]	> 20	40	
O=Cc1ccccc1 [Benzaldehyde]	> 20	36.9	
